Measured values published in patent US7009088B1, “Methods of modulating auxin production in plants” (priority 2000, dated 2006).

Columns and labels:
[1] = target: T1, CYP83B1 (Arabidopsis thaliana, UniProt O65782); assay: Optical difference (binding) spectroscopy of yeast microsomes containing CYP83B1
T1 sequence (O65782 1-499): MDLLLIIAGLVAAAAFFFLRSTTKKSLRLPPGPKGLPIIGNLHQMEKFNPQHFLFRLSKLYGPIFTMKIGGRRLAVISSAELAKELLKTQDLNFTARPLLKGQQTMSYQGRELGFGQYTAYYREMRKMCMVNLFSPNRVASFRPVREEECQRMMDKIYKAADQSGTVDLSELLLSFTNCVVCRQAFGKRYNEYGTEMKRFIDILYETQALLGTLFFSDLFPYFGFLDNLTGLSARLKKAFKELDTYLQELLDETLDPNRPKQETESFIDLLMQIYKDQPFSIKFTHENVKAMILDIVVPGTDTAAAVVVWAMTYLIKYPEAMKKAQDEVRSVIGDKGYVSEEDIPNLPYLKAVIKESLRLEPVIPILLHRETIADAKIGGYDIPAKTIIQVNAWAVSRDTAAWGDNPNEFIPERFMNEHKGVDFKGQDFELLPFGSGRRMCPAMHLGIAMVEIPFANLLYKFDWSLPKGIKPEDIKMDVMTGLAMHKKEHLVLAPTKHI
Method: (§1) FIG. 3. (A) Analysis of CYP83B1 by optical difference spectroscopy. […] After incubation for 10 min at 28° C. reaction mixtures were extracted with ethylacetate and analyzed by TLC. (s) substrate, (p) product.

[2] = target: T1, CYP83B1; assay: CYP83B1 catalysis of [5-3H]indole-3-acetaldoxime metabolism in yeast microsomes
Method: as §1
After incubation, reaction mixtures were stopped by adding SDS to 0.4% and were analyzed by thin layer chromatography (TLC). TLC plates were developed in chloroform/methanol/water (85:14:1) and radioactive bands visualized by autoradiography.
Reactions were stopped and extracted with ethylacetate. Aliquots of the substrate-containing ethylacetate phase and product-containing water phase were subjected to liquid scintillation counting.

[3] = system: wild type seedlings; assay: Indole glucosinolate levels in seedlings grown on MS agar, quantified as SCN; assay type: in vivo, Arabidopsis; conditions: wild type seedlings germinated on MS media with 100 μM compound, two week old, versus wild type
Method: FIG. 6. Indole glucosinolate levels are affected by CYP83B1 expression. Indole glucosinolates in individual two week old seedlings grown on MS agar were quantified calorimetrically as SCN. 1) Wild type, 2) rnt1-1, 3) molecularly complemented line 3.25.11, 4) overexpression line 1.4.7, and 5) wild type grown on 100 μM tryptamine. Data are represented as the mean±S.E, (n=10 seedlings). Except for the molecularly complemented line 3.25.11, mean indole glucosinolate values all differ from wild type seedling values at a 1% confidence value (t-test).
Tryptophan-derived indole-3-acetaldoxime is also an intermediate in the biosynthesis of indole glucosinolates.

[4] = system: Arabidopsis seedlings; assay: Seedling growth on media supplemented with IAN (auxin phenotype); assay type: in vivo
From the text: Four nitrilases, differentially expressed during development and in response to environmental cues, catalyze hydrolysis of IAN to IAA in Arabidopsis (Bartel and Fink (1994) Proc. Natl. Acad. Sci. USA 91:6649–6653). The nitl mutant is insensitive to the auxin effects of exogenously applied […] at the seedling stage (Normanly et al. (1997) Plant Cell 9:1781–1790). In accordance with the observed insensitivity of nit1 seedlings to IAN, NIT1 is most strongly expressed in the hypocotyl near the junction with the root in young seedlings as well as in the cotyledons. In contrast, NIT2 and NIT3 are expressed primarily in the cotyledons and NIT4 is expressed in the root tip (Bartel and Fink (1994) Proc. Natl. Acad. Sci. USA 91:6649–6653).

[5] = target: T2, NIT1 (Arabidopsis thaliana, UniProt P32961); conditions: cited from earlier work
T2 sequence (P32961 1-346): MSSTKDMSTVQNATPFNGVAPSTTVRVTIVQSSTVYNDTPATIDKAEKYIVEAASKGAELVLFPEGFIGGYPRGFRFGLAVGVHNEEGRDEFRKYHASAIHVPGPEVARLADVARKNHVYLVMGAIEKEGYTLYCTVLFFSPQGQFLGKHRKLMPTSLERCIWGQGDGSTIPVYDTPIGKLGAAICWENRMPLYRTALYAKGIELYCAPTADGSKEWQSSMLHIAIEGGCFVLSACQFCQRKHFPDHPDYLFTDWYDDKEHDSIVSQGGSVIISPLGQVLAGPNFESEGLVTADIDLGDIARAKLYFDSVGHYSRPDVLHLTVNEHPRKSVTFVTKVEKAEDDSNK

[6] = target: T3, NIT2 (Arabidopsis thaliana, UniProt P32962); conditions: cited from earlier work
T3 sequence (P32962 1-339): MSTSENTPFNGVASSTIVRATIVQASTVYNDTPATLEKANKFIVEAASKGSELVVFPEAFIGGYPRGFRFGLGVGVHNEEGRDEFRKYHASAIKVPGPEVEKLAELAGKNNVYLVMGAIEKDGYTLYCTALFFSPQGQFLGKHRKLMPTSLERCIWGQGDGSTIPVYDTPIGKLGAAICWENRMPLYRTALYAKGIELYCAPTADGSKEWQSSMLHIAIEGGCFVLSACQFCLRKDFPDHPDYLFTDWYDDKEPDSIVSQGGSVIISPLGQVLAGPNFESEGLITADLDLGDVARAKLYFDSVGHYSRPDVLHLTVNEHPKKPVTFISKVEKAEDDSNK

Compound	Kd [1] [µM]	turnover ([2]; in the presence of cysteine, 2.2 nM CYP83B1, 1 min at 28° C.) [min⁻¹]	Km ([2]; read-out: Michaelis-Menten constant Km, in the presence of cysteine, 2.2 nM CYP83B1, 1 min at 28° C.) [µM]	inhibition of indole-3-acetaldoxime oxidation ([2]; 17.5 mM tryptamine, 35 μM [5-3H]indole-3-acetaldoxime, 22 nM CYP83B1, 10 min at 28° C., TLC)	indole glucosinolate levels [3]	effect on germination / IAA phenotype ([4]; rnt1-1 seedlings on 50 μM)	seedling phenotype ([4]; wild type seedlings on media supplemented with 50 μM)	Km for IAN hydrolysis [5]	Km for IAN hydrolysis [6]
ON=CCc1c[nH]c2ccccc12 [indole-3-acetaldoxime]	0.2	53	3						
NCCc1c[nH]c2ccccc12 [tryptamine]	24			inhibitor	reduced levels				
N#CCc1c[nH]c2ccccc12 [IAN, indole-3-acetonitrile]						almost completely inhibiting germination	phenocopy rnt1-1 seedlings	in the mM range	in the mM range
